From patent US10507212B2, “Method for use of homopiperazinium compounds in the treatment of cancer” (UNIVERSITÉ LAVAL, priority 2014, dated 2019)
Like-named read-outs stand apart in the source and are kept apart here.

Experiments:
Assay type in all cases: cell-based
[1] = system: SK-OV/3; experiment: Anti-proliferative MTT assay, SK-OV/3; settings: Homo sapiens
Procedure: (§1) The effect of ASM-024 on the growth of MCF7, SK-BR-3, MDA-MB-231, BT-474 (mammary adenocarcinomas), SK-OV/3 (ovary adenocarcinoma), PC3 (prostate adenocarcinoma) SK-MEL-28(skin melanoma) and C6 (tumor cell glioma) was evaluated. Cells were cultured in RPMI medium and incubated with different concentrations of ASM-024. Cell proliferation was measured on days 3 and 6 by the MTT colorimetric assay. Absorbance at 576-690 nm was analyzed with a microplate reader and expressed as optical density (OD) and as a percentage of the value of corresponding untreated cells. The IC50 was determined as the drug concentration required to inhibit cell growth by 50% from a plot of percent cell viability from control untreated cells versus treated cells.

[2] = system: BT-474; experiment: Anti-proliferative MTT assay, BT-474; settings: Homo sapiens
Procedure: as §1

[3] = system: H520 squamous cell carcinoma; experiment: Cell proliferation assay, H520 (MTT); settings: for IC50: Tosylate
Procedure: In vitro experiments were conducted on four cancer cell lines: the A549 adenocarcinoma cell line, the H520 squamous cell carcinoma the H82 small cell lung carcinoma and Calu 3 lung adenocarcinoma. The A549 tumor cells, were plated at a density of 1.5×10^4 cells per mL and let to adhere on 96-well microplates in F12K cell culture medium enriched with 10% fetal calf serum (FCS). The H520, H82 and Calu 3 tumor cells were plated at a density of 5×10^4 cells per mL in RPMI+10% FCS. After 24 h in culture, the medium was changed and cells were exposed to ASM-024 at concentrations ranging from 10^−7M to 10^−3M (FIGS. 1A-1C). After 3 and 6 days in culture, cell growth was quantified using the MTT colorimetric assay (M2128, Sigma) at 575-690 nm or the Cell Titer fluorescence assay (G8080, Promega) at 560/590 nm.
In an another set of experiments, a series of 16 other homopiperazinium compounds, in addition to ASM-024, were tested for their anti-proliferative effect on the four tumor cell lines described above after up to 6 days in culture at concentrations of 10^-7M to 10^-3M. (FIGS. 4A-4E) Cell growth was quantified using the MTT colorimetric assay for the A-549, H520 and Calu 3 cell lines and the CellTiter Fluorescence assay.for the H82 tumor cell line These are established method of determining viable cell number in proliferation studies.

[4] = system: MDA-MB-231; experiment: Anti-proliferative MTT assay, MDA-MB-231; settings: Homo sapiens
Procedure: as §1
FIGS. 5A and 5B illustrate the observed results for the MDA-MB-231 mammary/breast gland adenocarcinoma assay. Cells were incubated with the dose drug shown and growth measured at the days indicated. In FIG. 5A the data is expressed as optical density (OD) and in FIG. 5B as a percentage of the value of corresponding untreated cells. P<0.05 compared to control at same day by Student t-test

IC50 ([1]; 72 h, SK-OV/3, day 3, read-out: IC50 Day 3): > 600 µM
IC50 ([1]; 144 h, SK-OV/3, day 6, read-out: IC50 Day 6): 618 ± 125 µM
IC50 ([2]; 72 h, BT-474, day 3, read-out: IC50 Day 3): > 1000 µM
IC50 ([2]; 144 h, BT-474, day 6, read-out: IC50 Day 6): 644 ± 230 µM
IC50 ([3]; H520, day 3 in culture, read-out: IC50 Day 3): 468 ± 287 µM
IC50 ([3]; H520, day 6 in culture, read-out: IC50 Day 6): 257 ± 257 µM
IC50 ([4]; 72 h, MDA-MB-231, day 3, read-out: IC50 Day 3): > 1000 µM
IC50 ([4]; 144 h, MDA-MB-231, day 6, read-out: IC50 Day 6): 661 ± 115 µM
SMILES: CC[N+]1(CC)CCCN(c2ccccc2)CC1.Cc1ccc(S(=O)(=O)[O-])cc1 [ASM-024, 1,1-Diethyl-4-phenyl-homopiperazinium Tosylate]
cell proliferation / cell growth inhibition (in words) ([3]; H520, day 3 and day 6, text on figures): dose-dependent decrease in cell proliferation
